The subject of assay [1] is Calcium Ionophore Stimulated Leukotriene Formation in Human Polymorphonuclear Leukocytes. Nature of the assay: Calcium ionophore-induced LTB4 formation in human polymorphonuclear leukocytes (Lipoxygenase Inhibition Determination). It is filed as cell-based. The conditions noted are these: human PMNL, 15 min preincubation, calcium ionophore 8.3 μM, 10 min at 37° C., LTB4 by enzyme-linked immunoassay or HPLC, read-out: Inhibitory Potencies Against Calcium Ionophore Stimulated Leukotriene Formation in Human Polymorphonuclear Leukocytes, IC50. The protocol: Leukotriene biosynthesis inhibitory activity of representative compounds of the present invention was evaluated in an assay involving calcium ionophore-induced LTB4 expressed in human polymorphornuclear leukocytes (PMNL). Human PMNL isolated from heparinized (20 USP units/mL) venous blood (25 mL) obtained from healthy volunteers was layered over an equal volume of Ficoll-Hypaque Mono-Poly Resolving Medium (ICN Flow, Costa Mesa, Calif.) and centrifugated at 400×g for 40 min at 20° C. The PMNL was collected, erythrocytes lysed and washed 2× and suspended at 1.0×10^7 cells/mL in Earle's balanced salt solution with 17 mM Earle's HEPES. […] Incubations were stopped with the addition of two volumes of ice-cold methanol followed by centrifuging the cell suspensions at 4° C. for 10 min at 450×g. The mount of LTB4 in the methanol extract was analyzed by enzyme-linked immunoassay or by HPLC analysis.

Another assay relates to leukotriene synthesis. The conditions noted are these: Bioorganic and Medicinal Chemistry Letters, 1: 645-648 (1991); cited from earlier work.

Counter-ions that a name gives are not always drawn. Like-named read-outs stand apart in the source and are kept apart here.

As to `O=C(O)C1CCC(c2ccc(OCc3ccc4ccccc4n3)cc2)(c2ccc(OCc3ccc4ccccc4n3)cc2)CC1` [Example 1, 4,4-bis-(4(2-quinolylmethoxy)phenyl)cyclohexane carboxylic acid], the IC50 (usually the concentration that gives 50% inhibition) in assay [1] came to 59 nM. `O=C(O)C1CCC(c2ccc(OCc3ccc4ccccc4n3)cc2)(c2ccc(OCc3ccc4ccccc4n3)cc2)CC1` [Example 2, 4,4-bis-(4-(2-quinolylmethoxy)phenyl)cyclohexane carboxylic acid sodium salt]: the IC50 in assay [1] (sodium salt) came to 47 nM. Consider `O=C(O)CSC(CCCc1ccc(Cl)cc1)c1ccc(OCc2ccc3ccccc3n2)cc1` [L-674,636, {[4-(4-chlorophenyl)-1-[4-(2-quinolylmethoxy)phenyl]-butyl]thio}acetic acid], for which, in the assay with leukotriene synthesis, the “leukotriene synthesis inhibitor (in words)” value is “potent and orally active leukotriene synthesis inhibitor”.

`CC(=NOC1CCC(c2ccc(OCc3ccc4ccccc4n3)cc2)(c2ccc(OCc3ccc4ccccc4n3)cc2)CC1)C(=O)O` [Example 5, sodium salt]: the IC50 in assay [1] amounted to 37 nM.

These data come from US5691351A, “Bis-(Heteroarylmethoxyphenyl)cycloalkyl carboxylates as inhibitors of leukotriene biosynthesis” (Abbott Laboratories, priority 1996, dated 1997).
